The target in this experiment is T1, human CRHR2-alpha (Homo sapiens, UniProt Q13324).
T1 construct: host or cells: CHO-K1
T1 sequence (Q13324 1-411): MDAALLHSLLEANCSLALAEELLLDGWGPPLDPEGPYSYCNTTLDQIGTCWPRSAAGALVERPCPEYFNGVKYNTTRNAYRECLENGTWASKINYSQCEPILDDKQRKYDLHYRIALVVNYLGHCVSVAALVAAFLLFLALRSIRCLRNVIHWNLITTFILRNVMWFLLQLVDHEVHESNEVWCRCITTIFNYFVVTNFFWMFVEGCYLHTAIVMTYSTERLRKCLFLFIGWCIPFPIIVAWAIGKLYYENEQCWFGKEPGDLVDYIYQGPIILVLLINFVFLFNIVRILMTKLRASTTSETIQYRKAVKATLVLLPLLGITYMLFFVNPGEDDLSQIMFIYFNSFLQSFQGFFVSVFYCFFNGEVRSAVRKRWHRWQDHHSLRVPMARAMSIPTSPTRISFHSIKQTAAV
Nature of the experiment: cAMP functional assay for human CRHR2 (LANCE Ultra TR-FRET). Format: cell-based. To be noted: inhibition of cAMP production in CHO-K1 cells stably expressing human CRHR2-alpha, EC90 of human urocortin2 as agonist; read-out: IC50 against CRHR2. In outline: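 CHO-K1 cells stably expressing CRHR2-alpha, serum-starved 7 h and cryopreserved, preincubated with compound 30 min at 25° C in HBSS with 0.1% BSA, 0.5 mM IBMX, 5 mM Hepes pH 7.4. EC90 human urocortin2 added for 30 min at 25° C; cAMP read by TR-FRET; IC50 from percent-inhibition curves.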

In general, IC50 refers to the point on the concentration scale where inhibition reaches its midpoint. For the molecule `COc1ccc(F)c(C2(O)C(=O)N(C[C@H]3CC[C@H](NC(=O)c4cc(Cl)cnc4C(F)F)CC3)c3cc(F)ccc32)c1` (stereo partly drawn) [Example 156, 5-chloro-2-(difluoromethyl)-N-((1r,4r)-4-((6-fluoro-3-(2-fluoro-5-methoxyphenyl)-3-hydroxy-2-oxoindolin-1-yl)methyl)cyclohexyl) nicotinamide], the IC50 was less than 200 nM.
`COc1cccc2c1C(O)(c1cccc(F)c1F)C(=O)N2C[C@H]1CC[C@H](NC(=O)c2cc(Cl)cnc2C(F)F)CC1` (stereo partly drawn) [Example 158, 5-chloro-2-(difluoromethyl)-N-((1r,4r)-4-((3-(2,3-difluorophenyl)-3-hydroxy-4-methoxy-2-oxoindolin-1-yl)methyl)cyclohexyl) nicotinamide]: the IC50 was less than 200 nM.
The value for `Cc1ncc(Cl)cc1C(=O)N[C@H]1CC[C@H](CN2C(=O)C(O)(c3cccc(F)c3F)c3cc(F)ccc32)CC1` (stereo partly drawn) [Example 162, 5-chloro-N-((1r,4r)-4-((3-(2,3-difluorophenyl)-5-fluoro-3-hydroxy-2-oxoindolin-1-yl)methyl)cyclohexyl)-2-methylnicotinamide] was less than 200 nM; that for `O=C(N[C@H]1CC[C@H](CN2C(=O)C(O)(c3cccc(F)c3F)c3ccccc32)CC1)c1cc(Cl)cnc1Cl` (stereo partly drawn) [Example 167, 2,5-dichloro-N-((1r,4r)-4-((3-(2,3-difluorophenyl)-3-hydroxy-2-oxoindolin-1-yl)methyl)cyclohexyl) nicotinamide] was less than 200 nM; that for `COc1ccc(F)c(C2(O)C(=O)N(C[C@H]3CC[C@H](NC(=O)c4cc(Cl)cnc4C(F)F)CC3)c3ccc(F)cc32)c1` (stereo partly drawn) [Example 168, 5-chloro-2-(difluoromethyl)-N-((1r,4r)-4-((5-fluoro-3-(2-fluoro-5-methoxyphenyl)-3-hydroxy-2-oxoindolin-1-yl)methyl)cyclohexyl) nicotinamide] was less than 200 nM.
As for `O=C(N[C@H]1CC[C@H](CN2C(=O)C(O)(c3ccccc3F)c3ccc(Cl)cc32)CC1)c1cc(Cl)cnc1C(F)F` (stereo partly drawn) [Example 170, 5-chloro-N-((1r,4r)-4-((6-chloro-3-(2-fluorophenyl)-3-hydroxy-2-oxoindolin-1-yl)methyl)cyclohexyl)-2-(difluoromethyl)nicotinamide], the figure is less than 200 nM.
As for `Cc1ncc(Cl)cc1C(=O)N[C@H]1CC[C@H](CN2C(=O)C(O)(c3cccc(F)c3F)c3ccccc32)CC1` (stereo partly drawn) [Example 173, 5-chloro-N-((1r,4r)-4-((3-(2,3-difluorophenyl)-3-hydroxy-2-oxoindolin-1-yl)methyl)cyclohexyl)-2-methylnicotinamide], the figure is less than 200 nM.
For `O=C(N[C@H]1CC[C@H](CN2C(=O)C(O)(c3ccccc3F)c3c(F)cc(F)cc32)CC1)c1cc(Cl)cnc1C(F)F` (stereo partly drawn) [Example 177, 5-chloro-N-((1r,4r)-4-((4,6-difluoro-3-(2-fluorophenyl)-3-hydroxy-2-oxoindolin-1-yl)methyl)cyclohexyl)-2-(difluoromethyl)nicotinamide], the IC50 was less than 200 nM.
As for `Cc1cccc2c1C(O)(c1ccc(F)cn1)C(=O)N2C[C@H]1CC[C@H](NC(=O)c2cc(Cl)cnc2C(F)F)CC1` (stereo partly drawn) [Example 178], the figure is less than 200 nM; as for `Cc1cccc2c1C(O)(c1ccccc1F)C(=O)N2C[C@H]1CC[C@H](NC(=O)c2cc(Cl)cnc2C(F)F)CC1` (stereo partly drawn) [Example 179, 5-chloro-2-(difluoromethyl)-N-((1r,4r)-4-((3-(2-fluorophenyl)-3-hydroxy-4-methyl-2-oxoindolin-1-yl)methyl)cyclohexyl) nicotinamide], less than 200 nM; as for `COc1ccc(F)c(C2(O)C(=O)N(C[C@H]3CC[C@H](NC(=O)c4cc(Cl)cnc4C(F)(F)F)CC3)c3ccccc32)c1` (stereo partly drawn) [Example 185, 5-chloro-N-((1r,4r)-4-((3-(2-fluoro-5-methoxyphenyl)-3-hydroxy-2-oxoindolin-1-yl)methyl)cyclohexyl)-2-(trifluoromethyl)nicotinamide], less than 200 nM.
Turning to `COc1ccc(F)c(C2(O)C(=O)N(C[C@H]3CC[C@H](NC(=O)c4cc(Cl)cnc4C(F)F)CC3)c3cccc(F)c32)c1` (stereo partly drawn) [Example 189, 5-chloro-2-(difluoromethyl)-N-((1r,4r)-4-((4-fluoro-3-(2-fluoro-5-methoxyphenyl)-3-hydroxy-2-oxoindolin-1-yl)methyl)cyclohexyl) nicotinamide], the IC50 was less than 200 nM.
As for `O=C(N[C@H]1CC[C@H](CN2C(=O)C(O)(c3cccc(Cl)c3F)c3c(F)cccc32)CC1)c1cc(Cl)cnc1C(F)F` (stereo partly drawn) [Example 190, 5-chloro-N-((1r,4r)-4-((3-(3-chloro-2-fluorophenyl)-4-fluoro-3-hydroxy-2-oxoindolin-1-yl)methyl)cyclohexyl)-2-(difluoromethyl)nicotinamide], the figure is less than 200 nM.
As for `O=C(N[C@H]1CC[C@H](CN2C(=O)C(O)(c3ccccc3F)c3c(F)cccc32)CC1)c1cc(Cl)cnc1C(F)F` (stereo partly drawn) [Example 191, 5-chloro-2-(difluoromethyl)-N-((1r,4r)-4-((4-fluoro-3-(2-fluorophenyl)-3-hydroxy-2-oxoindolin-1-yl)methyl)cyclohexyl) nicotinamide], the figure is less than 200 nM; as for `O=C(N[C@H]1CC[C@H](CN2C(=O)C(O)(c3cccc(F)c3F)c3c(F)cccc32)CC1)c1cc(Cl)cnc1C(F)F` (stereo partly drawn) [Example 192, 5-chloro-2-(difluoromethyl)-N-((1r,4r)-4-((3-(2,3-difluorophenyl)-4-fluoro-3-hydroxy-2-oxoindolin-1-yl)methyl)cyclohexyl) nicotinamide], less than 200 nM.

For the origin of these results see patent US12421191B2, “3-hydroxyoxindole derivatives as CRHR2 antagonist” (RaQualia Pharma Inc., priority 2020, dated 2025).
